In patent US5856344A, “Sulfonylamino-substituted benzoylguanidines, a process for their preparation, their use as a medicament or diagnostic aid, and medicament containing them” (Hoechst Aktiengesellschaft, priority 1995, dated 1999) one finds IC50 data, which are given here for two compounds.

Structures can show the parent of a compound that is named as a salt.

This experiment addresses T1, Na^+ /H^+ exchanger of rabbit erythrocytes (Oryctolagus cuniculus, UniProt P23791).
T1 construct: endogenous in cells; host or cells: erythrocytes in whole blood of cholesterol-fed White New Zealand rabbits (Ivanovas)
Kind of experiment: Inhibition of the Na+/H+ exchanger of rabbit erythrocytes (amiloride-sensitive sodium influx, flame photometry). Format: cell-based, rabbit (White New Zealand). The conditions noted are these: hyperosmolar salt/sucrose medium, pH 7.4, 37° C. The text has this: Inhibition of the Na^+ /H^+ exchanger of rabbit erythrocytes White New Zealand rabbits (Ivanovas) received a standard diet containing 2% cholesterol for six weeks in order to activate Na^+ /H^+ exchange and thus to make it possible to determine the Na^+ influx into the erythrocytes via Na^+ /H^+ exchange by flame photometry. The blood was taken from the arteries of the ear and anticoagulated with 25 IU of potassium heparin. Part of each sample was used for duplicate determination of the hematocrit by centrifugation. Aliquots each of 100 μl were used to measure the Na^+ content of the erythrocytes.
In order to determine the amiloride-sensitive sodium influx, 100 μl of each blood sample were incubated in each case in 5 ml of a hyperosmolar salt/sucrose medium (mmol/l: 140 NaCl, 3 KCl, 150 sucrose, 0.1 ouabain, 20 trishydroxymethylaminomethane) at pH 7.4 and 37° C. The erythrocytes were then washed three times with ice-cold MgCl2 /ouabain solution (mmol/l: 112 MgCl2, 0.1 ouabain) and hemolyzed in 2.0 ml of distilled water. The intracellular sodium content was determined by flame photometry.
The net Na^+ influx was calculated from the difference between the initial sodium levels and the sodium content of the erythrocytes after incubation. […]

T1 sequence (P23791 whole entry): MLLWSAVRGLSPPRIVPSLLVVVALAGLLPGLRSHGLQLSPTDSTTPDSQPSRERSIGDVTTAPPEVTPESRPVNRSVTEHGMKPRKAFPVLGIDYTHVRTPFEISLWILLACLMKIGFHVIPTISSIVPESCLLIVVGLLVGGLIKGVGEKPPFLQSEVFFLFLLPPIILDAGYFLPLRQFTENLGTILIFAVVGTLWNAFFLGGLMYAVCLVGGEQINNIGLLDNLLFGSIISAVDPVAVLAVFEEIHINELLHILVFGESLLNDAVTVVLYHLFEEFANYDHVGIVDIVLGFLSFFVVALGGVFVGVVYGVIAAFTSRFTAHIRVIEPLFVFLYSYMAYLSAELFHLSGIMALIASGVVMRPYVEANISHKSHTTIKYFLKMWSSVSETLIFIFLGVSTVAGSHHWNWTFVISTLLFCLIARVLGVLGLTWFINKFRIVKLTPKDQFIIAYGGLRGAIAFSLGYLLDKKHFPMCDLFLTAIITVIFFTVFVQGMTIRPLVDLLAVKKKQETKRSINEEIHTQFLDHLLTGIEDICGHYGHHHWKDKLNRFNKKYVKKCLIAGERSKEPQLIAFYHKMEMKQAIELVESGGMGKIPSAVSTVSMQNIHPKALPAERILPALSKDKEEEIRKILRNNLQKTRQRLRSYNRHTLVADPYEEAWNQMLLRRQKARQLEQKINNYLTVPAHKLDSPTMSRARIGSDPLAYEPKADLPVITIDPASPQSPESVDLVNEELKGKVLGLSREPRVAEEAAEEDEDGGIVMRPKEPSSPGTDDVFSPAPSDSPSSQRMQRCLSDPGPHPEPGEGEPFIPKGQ

Usually IC50 stands for the midpoint of a concentration-inhibition curve. Regarding `CC(C)c1ccc(C(=O)N=C(N)N)cc1NS(C)(=O)=O` [Example 1, 4-Isopropyl-3-methylsulfonylaminobenzoylguanidine, hydrochloride], the IC50 came to 300 nM.

For the compound `CS(=O)(=O)Nc1cc(C(=O)N=C(N)N)ccc1Oc1cccnc1` [Example 2, 3-Methylsulfonylamino-4--(3-pyridyloxy)benzoylguanidine], the IC50 is 740 nM.
